The values that follow come from US8642788B2, “Activators of executioner procaspases 3, 6 and 7” (The Regents of the University of California, priority 2008, dated 2014).

Common to all, as to format: biochemical
One assay concerns the target T1, procaspase-3 (Homo sapiens, UniProt P42574).
T1 construct: His6 (C); made in house; host or cells: E. coli BL21(DE3)RP, pET-23b
T1 sequence (P42574 1-277): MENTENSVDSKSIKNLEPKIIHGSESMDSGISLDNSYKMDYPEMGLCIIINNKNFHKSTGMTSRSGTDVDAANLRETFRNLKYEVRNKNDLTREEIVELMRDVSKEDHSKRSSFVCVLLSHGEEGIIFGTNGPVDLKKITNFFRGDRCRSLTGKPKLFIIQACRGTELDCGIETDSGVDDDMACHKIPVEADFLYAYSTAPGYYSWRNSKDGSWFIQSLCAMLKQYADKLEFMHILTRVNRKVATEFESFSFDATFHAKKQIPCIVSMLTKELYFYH
Put plainly: Executioner procaspase-3 activation assay (Ac-DEVD-AFC fluorogenic substrate). Particulars: incubation with compound for 5 h at 37° C.; 100 nM procaspase; read-out: Procaspase Activation 3. The protocol:
The executioner procaspase-3, -6 and -7 activation assay protocol involves incubating the target protein at the physiologically-relevant concentration of 100 nM with activating compounds (ranging from 100 nM to 100 uM) in a total volume of 50 μL consisting of a reaction buffer of 50 mM HEPES, pH 7.4, 50 mM KCl, 1 mM DTT and 0.01% Triton-X100 (to reduce false positive hits due to compound aggregation). […] All components of the assay including protein, substrate and inhibitor are stored as frozen aliquots and thawed immediately prior to the assay.

For the next assay, the target named is T2, procaspase-6 (Homo sapiens, UniProt P55212).
T2 sequence (P55212 1-293): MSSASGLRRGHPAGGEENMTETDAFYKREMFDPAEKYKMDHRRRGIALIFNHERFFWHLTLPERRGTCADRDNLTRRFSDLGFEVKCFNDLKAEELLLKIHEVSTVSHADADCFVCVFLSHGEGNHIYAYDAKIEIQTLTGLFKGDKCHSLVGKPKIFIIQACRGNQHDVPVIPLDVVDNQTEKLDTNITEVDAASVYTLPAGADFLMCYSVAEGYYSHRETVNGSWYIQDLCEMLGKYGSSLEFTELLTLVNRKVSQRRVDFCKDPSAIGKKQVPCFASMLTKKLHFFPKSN
Put plainly: Executioner procaspase-6 activation assay (Ac-VEID-AFC fluorogenic substrate). To be noted: incubation with compound for 5 h at 37° C.; 100 nM procaspase. The protocol: (§1) The executioner procaspase-3, -6 and -7 activation assay protocol involves incubating the target protein at the physiologically-relevant concentration of 100 nM with activating compounds (ranging from 100 nM to 100 uM) in a total volume of 50 μL consisting of a reaction buffer of 50 mM HEPES, pH 7.4, 50 mM KCl, 1 mM DTT and 0.01% Triton-X100 (to reduce false positive hits due to compound aggregation). The procaspase/small molecule incubations are then agitated at 37° C. and assayed at various time points by addition of the fluorogenic peptide substrate 7-Amino-4-trifluoromethylcoumarin-DEVD (Ac-DEVD-AFC) (procaspases-3, -7) or Ac-VEID-AFC (procaspase-6) to a final concentration of 25 μM and analyzed by a kinetic 30 minute assay (excitation 365 nm and emission 495 nm). The final concentration of DMSO in each well is 3% and has no effect on enzyme stability or activity. […] All components of the assay including protein, substrate and inhibitor are stored as frozen aliquots and thawed immediately prior to the assay.
(§2) Tables 1 and 2. Procaspase activation as a result of incubation with compound for 5 h at 37° C. (+++ EC50˜0.5-10 μM; ++ EC50˜10-50 μM; + EC50˜50-200 μM; -no activation observed; ND not determined).

A further assay has as its target T3, procaspase-7 (Homo sapiens, UniProt P55210).
T3 construct: His6 (C); made in house; host or cells: E. coli BL21(DE3)RP, pET-21b
T3 sequence (P55210 1-303): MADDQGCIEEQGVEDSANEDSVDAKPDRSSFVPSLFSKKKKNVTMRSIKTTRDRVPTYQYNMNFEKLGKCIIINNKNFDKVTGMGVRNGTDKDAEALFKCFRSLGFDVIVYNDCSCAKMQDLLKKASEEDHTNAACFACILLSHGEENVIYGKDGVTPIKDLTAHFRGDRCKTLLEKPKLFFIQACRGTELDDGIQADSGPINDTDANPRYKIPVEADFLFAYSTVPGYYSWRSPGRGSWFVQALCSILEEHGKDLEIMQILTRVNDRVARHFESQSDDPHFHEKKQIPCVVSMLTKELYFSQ
Put plainly: Executioner procaspase-7 activation assay (Ac-DEVD-AFC fluorogenic substrate). Particulars: incubation with compound for 5 h at 37° C.; 100 nM procaspase. On the procedure:
as §1, §2

Take `O=C(Nc1cccc(-c2nc3ccccc3[nH]2)c1)c1cc2cccc(O)c2oc1=O` [compound 15, 8-Hydroxy-2-oxo-2H-chromene-3-carboxylic acid [3-(1H-benzoimidazol-2-yl)-phenyl]-amide]: the EC50 at procaspase-3, on procaspase-6 and at procaspase-7 was > 100 µM in each case.
With `O=C(Nc1cccc(N2CCOCC2)c1)c1cc2cccc(O)c2oc1=O` [compound 16, 8-Hydroxy-2-oxo-2H-chromene-3-carboxylic acid (3-morpholin-4-yl-phenyl)-amide], the EC50 at procaspase-3, on procaspase-6 and at procaspase-7 was > 100 µM each time.
`O=C(Nc1cccc(-c2cccnc2)c1)c1cc2cccc(O)c2oc1=O` [compound 17, 8-Hydroxy-2-oxo-2H-chromene-3-carboxylic acid (3-pyridin-3-yl-phenyl)-amide]: the EC50 at procaspase-3, on procaspase-6 and at procaspase-7 was > 100 µM each time.
For `COc1cccc2cc(C(=O)Nc3cccc(-c4cccnc4)c3)c(=O)oc12` [compound 18, 8-Methoxy-2-oxo-2H-chromene-3-carboxylic acid (3-pyridin-3-yl-phenyl)-amide], the EC50 on procaspase-3, at procaspase-6 and at procaspase-7 was > 100 µM throughout.
As for `O=C(Nc1cccc(-c2ccncc2)c1)c1cc2cccc(O)c2oc1=O` [compound 19, 8-Hydroxy-2-oxo-2H-chromene-3-carboxylic acid (3-pyridin-4-yl-phenyl)-amide], the values for the EC50 on procaspase-3, at procaspase-6 and at procaspase-7 were 0.5 to 10 µM, 0.5 to 10 µM and 50 to 200 µM, respectively.
With `CCOc1ncccc1-c1cccc(NC(=O)c2cc3cccc(O)c3oc2=O)c1` [compound 41, 8-Hydroxy-2-oxo-2H-chromene-3-carboxylic acid [3-(2-ethoxy-pyridin-3-yl)-phenyl]-amide], the EC50 was 10 to 50 µM on procaspase-3, 50 to 200 µM on procaspase-6 and > 100 µM on procaspase-7.
Take `CCOc1ncccc1-c1cccc(NC(=O)c2cc3cccc(OC)c3oc2=O)c1` [compound 42, 8-Methoxy-2-oxo-2H-chromene-3-carboxylic acid [3-(2-ethoxy-pyridin-3-yl)-phenyl]-amide]: the EC50 on procaspase-3, at procaspase-6 and on procaspase-7 was > 100 µM in each case.
Regarding `CCOc1ncccc1-c1cccc(NC(=O)c2cc3cccc(OC(F)(F)F)c3oc2=O)c1` [compound 43, 8-Trifluoromethoxy-2-oxo-2H-chromene-3-carboxylic acid [3-(2-ethoxy-pyridin-3-yl)-phenyl]-amide], the EC50 at procaspase-3, at procaspase-6 and at procaspase-7 was > 100 µM throughout.
As for `COc1ccc(-c2cccc(NC(=O)c3cc4cccc(O)c4oc3=O)c2)cc1` [compound 44, 8-Hydroxy-2-oxo-2H-chromene-3-carboxylic acid (4′-Methoxy-biphenyl-3-yl)-amide], the EC50 is > 100 µM on procaspase-3, > 100 µM at procaspase-6 and 0.5 to 10 µM on procaspase-7.
In the case of `COc1ccc(-c2cccc(NC(=O)c3cc4cccc(OC(F)(F)F)c4oc3=O)c2)cc1` [compound 46, 8-Trifluoromethoxy-2-oxo-2H-chromene-3-carboxylic acid (4′-Methoxy-biphenyl-3-yl)-amide], the EC50 at procaspase-3, on procaspase-6 and on procaspase-7 was > 100 µM each time.
Take `COc1ccc(-c2cccc(NC(=O)c3cc4cccc(O)c4oc3=O)c2)cc1C` [compound 47, 8-Hydroxy-2-oxo-2H-chromene-3-carboxylic acid (4′-Methoxy-3′-methyl-biphenyl-3-yl)-amide]: the EC50 at procaspase-3, on procaspase-6 and at procaspase-7 was > 100 µM in each case.
With `COc1ccc(-c2cccc(NC(=O)c3cc4cccc(OC)c4oc3=O)c2)cc1C` [compound 48, 8-Methoxy-2-oxo-2H-chromene-3-carboxylic acid (4′-Methoxy-3′-methyl-biphenyl-3-yl)-amide], the EC50 on procaspase-3, at procaspase-6 and at procaspase-7 was > 100 µM throughout.
With `COc1ccc(-c2cccc(NC(=O)c3cc4cccc(OC(F)(F)F)c4oc3=O)c2)cc1C` [compound 49, 8-Trifluoromethoxy-2-oxo-2H-chromene-3-carboxylic acid (4′-Methoxy-3′-methyl-biphenyl-3-yl)-amide], the EC50 at procaspase-3, at procaspase-6 and on procaspase-7 was > 100 µM throughout.
Take `COc1ccc(-c2cccc(NC(=O)c3cc4cccc(O)c4oc3=O)c2)c(OC)c1` [compound 50, 8-Hydroxy-2-oxo-2H-chromene-3-carboxylic acid (2′,4′-dimethoxy-biphenyl-3-yl)-amide]: the EC50 on procaspase-3, at procaspase-6 and on procaspase-7 was > 100 µM throughout.
Regarding `COc1ccc(-c2cccc(NC(=O)c3cc4cccc(OC)c4oc3=O)c2)c(OC)c1` [compound 51, 8-Methoxy-2-oxo-2H-chromene-3-carboxylic acid (2′,4′-dimethoxy-biphenyl-3-yl)-amide], the EC50 at procaspase-3, on procaspase-6 and on procaspase-7 was > 100 µM each time.
Regarding `COc1ccc(-c2cccc(NC(=O)c3cc4cccc(OC(F)(F)F)c4oc3=O)c2)c(OC)c1` [compound 52, 8-Trifluoromethoxy-2-oxo-2H-chromene-3-carboxylic acid (2′,4′-dimethoxy-biphenyl-3-yl)-amide], the EC50 on procaspase-3, at procaspase-6 and at procaspase-7 was > 100 µM in each case.
In the case of `COc1ccc(-c2cccc(NC(=O)c3cc4cccc(O)c4oc3=O)c2)cc1OC` [compound 53, 8-Hydroxy-2-oxo-2H-chromene-3-carboxylic acid (3′,4′-Dimethoxy-biphenyl-3-yl)-amide], the EC50 on procaspase-3 is > 100 µM; at procaspase-6 it was > 100 µM; at procaspase-7, 0.5 to 10 µM.
For the molecule `COc1ccc(-c2cccc(NC(=O)c3cc4cccc(OC)c4oc3=O)c2)cc1OC` [compound 54, 8-Methoxy-2-oxo-2H-chromene-3-carboxylic acid (3′,4′-Dimethoxy-biphenyl-3-yl)-amide], the EC50 at procaspase-3, at procaspase-6 and on procaspase-7 was > 100 µM each time.
Regarding `COc1ccc(-c2cccc(NC(=O)c3cc4cccc(OC(F)(F)F)c4oc3=O)c2)cc1OC` [compound 55, 8-Trifluoromethoxy-2-oxo-2H-chromene-3-carboxylic acid (3′,4′-Dimethoxy-biphenyl-3-yl)-amide], the EC50 at procaspase-3, at procaspase-6 and on procaspase-7 was > 100 µM each time.
Take `COc1ccc(OC)c(-c2cccc(NC(=O)c3cc4cccc(O)c4oc3=O)c2)c1` [compound 56, 8-Hydroxy-2-oxo-2H-chromene-3-carboxylic acid (2′,5′-dimethoxy-biphenyl-3-yl)-amide]: the EC50 at procaspase-3, at procaspase-6 and on procaspase-7 was > 100 µM throughout.
For `COc1cccc2c1OCC(C(=O)Nc1cccc(-c3cn4ccccc4n3)c1)=C2` [compound 182, 8-Methoxy-2H-chromene-3-carboxylic acid (3-imidazo[1,2-a]pyridin-2-yl-phenyl)-amide], the EC50 on procaspase-3 and at procaspase-6 was > 100 µM throughout.
